According to PubChem BioAssay AID2060510 (Molecular Pharmacology Branch, DTP, NCI, 2025):

Test system: 439559-082-T-J2-PDC spheroids viability
Assay: Anticancer human tumor 439559-082-T-J2-PDC patient-derived colon adenocarcinoma cell line growth inhibition [GQUAD]
Details: for IC50: curve of first compound; for viability, T/C: stronger effect = lower value
How it was run: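 Tumor cells were grown as complex spheroids with HUVEC endothelial cells and mesenchymal stem cells as stroma. G-quadruplex stabilizers were combined with targeted agents over half-log dilutions from near the clinical Cmax, or from 10 microM.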

[1] = second compound 0.0316 µM, first compound 0.0316 µM
[2] = second compound 0.0316 µM, first compound 0.1 µM
[3] = second compound 0.0316 µM, first compound 0.316 µM
[4] = second compound 0.0316 µM, first compound 1 µM
[5] = second compound 0.0316 µM, first compound 3.16 µM
[6] = second compound 0.0316 µM, first compound 10 µM
[7] = second compound 0.1 µM, first compound 0.0316 µM
[8] = second compound 0.1 µM, first compound 0.1 µM
[9] = second compound 0.1 µM, first compound 0.316 µM
[10] = second compound 0.1 µM, first compound 1 µM
[11] = second compound 0.1 µM, first compound 3.16 µM
[12] = second compound 0.1 µM, first compound 10 µM
[13] = second compound 0.316 µM, first compound 0.0316 µM
[14] = second compound 0.316 µM, first compound 0.1 µM
[15] = second compound 0.316 µM, first compound 0.316 µM
[16] = second compound 0.316 µM, first compound 1 µM
[17] = second compound 0.316 µM, first compound 3.16 µM
[18] = second compound 0.316 µM, first compound 10 µM
[19] = second compound 1 µM, first compound 0.0316 µM
[20] = second compound 1 µM, first compound 0.1 µM
[21] = second compound 1 µM, first compound 0.316 µM
[22] = second compound 1 µM, first compound 1 µM
[23] = second compound 1 µM, first compound 3.16 µM
[24] = second compound 1 µM, first compound 10 µM
[25] = second compound 3.16 µM, first compound 0.0316 µM
[26] = second compound 3.16 µM, first compound 0.1 µM
[27] = second compound 3.16 µM, first compound 0.316 µM
[28] = second compound 3.16 µM, first compound 1 µM
[29] = second compound 3.16 µM, first compound 3.16 µM
[30] = second compound 3.16 µM, first compound 10 µM
[31] = second compound 10 µM, first compound 0.0316 µM
[32] = second compound 10 µM, first compound 0.1 µM
[33] = second compound 10 µM, first compound 0.316 µM
[34] = second compound 10 µM, first compound 1 µM
[35] = second compound 10 µM, first compound 3.16 µM
[36] = second compound 10 µM, first compound 10 µM
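Also: spheroids exposed to the agents for 7 days before readout.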
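For viability, T/C in this document: percent of luminescence signal in DMSO vehicle wells taken as 100% viability.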

SMILES: C#Cc1c(F)ccc2cc(O)cc(-c3ncc4c(N5CC6CCC(C5)N6)nc(OCC56CCCN5CC(F)C6)nc4c3F)c12 (centres undefined) + Cc1[nH]c2ccc(F)cc2c1-c1nc2c3cccnc3c3ncccc3c2[nH]1
- IC50 (second compound 0.0316 µM): 1540 nM
- IC50 (second compound 0.1 µM): 1620 nM
- IC50 (second compound 0.316 µM): 1530 nM
- IC50 (second compound 1 µM): 1610 nM
- IC50 (second compound 3.16 µM): 709 nM
- IC50 (second compound 10 µM): 1010 nM
- viability, T/C [1]: 97%
- viability, T/C [2]: 104%
- viability, T/C [3]: 87.6%
- viability, T/C [4]: 71.9%
- viability, T/C [5]: 13.7%
- viability, T/C [6]: 9.66%
- viability, T/C [7]: 112%
- viability, T/C [8]: 96.4%
- viability, T/C [9]: 109%
- viability, T/C [10]: 79.5%
- viability, T/C [11]: 9.72%
- viability, T/C [12]: 7.59%
- viability, T/C [13]: 105%
- viability, T/C [14]: 97.9%
- viability, T/C [15]: 90.8%
- viability, T/C [16]: 74.2%
- viability, T/C [17]: 7.82%
- viability, T/C [18]: 7.52%
- viability, T/C [19]: 91.5%
- viability, T/C [20]: 91.9%
- viability, T/C [21]: 101%
- viability, T/C [22]: 79.9%
- viability, T/C [23]: 8.22%
- viability, T/C [24]: 5.9%
- viability, T/C [25]: 72.2%
- viability, T/C [26]: 72.5%
- viability, T/C [27]: 70.8%
- viability, T/C [28]: 41.1%
- viability, T/C [29]: 5.26%
- viability, T/C [30]: 2.89%
- viability, T/C [31]: 85.2%
- viability, T/C [32]: 69.3%
- viability, T/C [33]: 93%
- viability, T/C [34]: 50.5%
- viability, T/C [35]: 2.77%
- viability, T/C [36]: 3.31%

SMILES: CC(=O)O[C@H]1C(=O)[C@@]2(C)[C@H]([C@H](OC(=O)c3ccccc3)[C@]3(O)C[C@H](OC(=O)[C@H](O)[C@@H](NC(=O)c4ccccc4)c4ccccc4)C(C)=C1C3(C)C)[C@]1(OC(C)=O)CO[C@@H]1C[C@@H]2O + CN(C)c1ccc(Nc2c3ccc(NC(=O)CCN4CCCC4)cc3nc3cc(NC(=O)CCN4CCCC4)ccc23)cc1
- IC50 (second compound 0.0316 µM): 2030 nM
- IC50 (second compound 0.1 µM): 1830 nM
- IC50 (second compound 0.316 µM): 2040 nM
- IC50 (second compound 1 µM): 1790 nM
- IC50 (second compound 3.16 µM): 2180 nM
- IC50 (second compound 10 µM): 1360 nM
- viability, T/C [1]: 84.8%
- viability, T/C [2]: 77.7%
- viability, T/C [3]: 74.5%
- viability, T/C [4]: 62.8%
- viability, T/C [5]: 41.7%
- viability, T/C [6]: 29.9%
- viability, T/C [7]: 85.1%
- viability, T/C [8]: 83.7%
- viability, T/C [9]: 74.2%
- viability, T/C [10]: 60.9%
- viability, T/C [11]: 40.3%
- viability, T/C [12]: 31.6%
- viability, T/C [13]: 84%
- viability, T/C [14]: 82.3%
- viability, T/C [15]: 69.7%
- viability, T/C [16]: 60.4%
- viability, T/C [17]: 44%
- viability, T/C [18]: 30.7%
- viability, T/C [19]: 76.2%
- viability, T/C [20]: 82.9%
- viability, T/C [21]: 70%
- viability, T/C [22]: 64%
- viability, T/C [23]: 36.9%
- viability, T/C [24]: 28.9%
- viability, T/C [25]: 82.1%
- viability, T/C [26]: 84.6%
- viability, T/C [27]: 78.9%
- viability, T/C [28]: 65.8%
- viability, T/C [29]: 42.5%
- viability, T/C [30]: 26.7%
- viability, T/C [31]: 73.5%
- viability, T/C [32]: 73.9%
- viability, T/C [33]: 86.2%
- viability, T/C [34]: 56.6%
- viability, T/C [35]: 36.7%
- viability, T/C [36]: 27%
